molecular target: T1, Prostaglandin G/H synthase 2 (Mus musculus) (UniProt Q05769); assay: In vitro percentage inhibition against Prostaglandin G/H synthase 2 using freshly harvested mouse peritoneal macrophages at 10 ug/mL concentration; settings: not given
T1 sequence (whole entry): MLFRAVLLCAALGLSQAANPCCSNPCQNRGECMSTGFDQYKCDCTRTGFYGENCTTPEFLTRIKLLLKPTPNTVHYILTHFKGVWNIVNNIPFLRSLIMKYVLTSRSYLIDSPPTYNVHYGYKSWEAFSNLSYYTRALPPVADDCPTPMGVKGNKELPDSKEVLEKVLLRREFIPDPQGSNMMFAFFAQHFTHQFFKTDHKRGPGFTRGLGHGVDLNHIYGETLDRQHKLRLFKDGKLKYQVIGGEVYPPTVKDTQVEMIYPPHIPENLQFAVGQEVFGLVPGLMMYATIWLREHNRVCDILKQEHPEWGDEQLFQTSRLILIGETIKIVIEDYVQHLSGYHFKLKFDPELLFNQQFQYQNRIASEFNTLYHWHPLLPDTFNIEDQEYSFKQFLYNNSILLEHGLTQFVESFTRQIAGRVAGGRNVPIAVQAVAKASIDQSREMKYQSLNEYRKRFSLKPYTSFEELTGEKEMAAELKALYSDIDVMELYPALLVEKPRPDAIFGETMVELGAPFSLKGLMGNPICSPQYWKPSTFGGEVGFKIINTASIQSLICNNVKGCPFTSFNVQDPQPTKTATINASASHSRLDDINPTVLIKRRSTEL

Compound | inhibition [%]
CS(=O)(=O)c1ccc(-c2oc3ccccc3c(=O)c2-c2ccccn2)cc1 | 44
CS(=O)(=O)c1ccc(-c2oc3ccccc3c(=O)c2-c2ccncc2)cc1 | 24
Cn1cc(-c2c(-c3ccc(S(C)(=O)=O)cc3)oc3ccccc3c2=O)cn1 | 13

test system: Rattus norvegicus; assay: Anti-inflammatory activity in Dawley rats by carrageenan-induced rat paw edema at a dose of 3 mg/kg; format: functional; settings: not given

Compound | inhibition in vivo at 3 mg/kg [%]
CS(=O)(=O)c1ccc(-c2oc3ccccc3c(=O)c2-c2cccnc2)cc1 | 18

test system: not listed separately; assay: Half-life period in rat at 10 mg/kg; format: ADME, organism-based; design: dose 10 mg/kg; settings: in vivo

Compound | half-life [h]
CS(=O)(=O)c1ccc(-c2oc3ccc(F)cc3c(=O)c2-c2cccnc2)cc1 | 7.4

molecular target: T2, Prostaglandin G/H synthase 1 (Mus musculus) (UniProt P22437); assay: In vitro percentage inhibition against using freshly harvested mouse peritoneal macrophages Prostaglandin G/H synthase 1 at 10 ug/mL concentration; settings: not given
T2 sequence (whole entry): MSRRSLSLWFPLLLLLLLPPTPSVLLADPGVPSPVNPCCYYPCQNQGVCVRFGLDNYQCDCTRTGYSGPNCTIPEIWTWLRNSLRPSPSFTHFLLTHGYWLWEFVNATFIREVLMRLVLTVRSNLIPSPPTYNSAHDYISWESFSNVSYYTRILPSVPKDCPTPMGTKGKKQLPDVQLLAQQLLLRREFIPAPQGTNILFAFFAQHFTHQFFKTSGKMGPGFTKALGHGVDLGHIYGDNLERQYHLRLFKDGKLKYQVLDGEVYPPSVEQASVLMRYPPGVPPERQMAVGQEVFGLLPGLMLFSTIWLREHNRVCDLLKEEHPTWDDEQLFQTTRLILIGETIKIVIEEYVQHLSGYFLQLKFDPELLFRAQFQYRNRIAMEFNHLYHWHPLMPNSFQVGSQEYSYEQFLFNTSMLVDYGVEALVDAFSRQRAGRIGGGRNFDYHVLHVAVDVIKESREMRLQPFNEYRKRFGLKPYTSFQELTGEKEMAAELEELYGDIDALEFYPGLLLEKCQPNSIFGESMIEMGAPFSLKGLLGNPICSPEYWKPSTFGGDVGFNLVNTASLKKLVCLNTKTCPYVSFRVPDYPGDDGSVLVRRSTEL

Compound | inhibition [%]
NS(=O)(=O)c1ccc(-c2oc3ccccc3c(=O)c2-c2ccc3c(c2)OCO3)cc1 | 75

molecular target: T1, Prostaglandin G/H synthase 2 (Mus musculus); assay: In vitro percentage inhibition against Prostaglandin G/H synthase 2 using freshly harvested mouse peritoneal macrophages at 3 ug/mL concentration; settings: not given

Compound | inhibition [%]
CS(=O)(=O)c1ccc(-c2oc3ccccc3c(=O)c2-c2cc(Cl)cc(Cl)c2)cc1 | 7

test system: Rattus norvegicus; assay: Anti-inflammatory activity in Dawley rats by carrageenan-induced rat paw edema at a dose of 30 mg/kg by oral administration; format: functional; settings: not given

Compound | inhibition in vivo at 30 mg/kg [%]
CS(=O)(=O)c1ccc(-c2oc3ccc(F)cc3c(=O)c2-c2cccnc2)cc1 | 41

test system: not listed separately; assay: Tmax in rat at 10 mg/kg; format: ADME, organism-based; design: dose 10 mg/kg; settings: in vivo

Compound | Tmax [h]
CS(=O)(=O)c1ccc(-c2oc3ccc(F)cc3c(=O)c2-c2cccnc2)cc1 | 5

test system: not listed separately; assay: Cmax in rat at 10 mg/kg; format: ADME, organism-based; design: dose 10 mg/kg; settings: in vivo

Compound | Cmax [ng/mL]
CS(=O)(=O)c1ccc(-c2oc3ccc(F)cc3c(=O)c2-c2cccnc2)cc1 | 6900

molecular target: T3, Prostaglandin G/H synthase 2 (Mus musculus, UniProt Q05769); assay: In vitro inhibitory concentration against prostaglandin G/H synthase 2 using freshly harvested mouse peritoneal macrophages; settings: not given
T3 sequence (Q05769 whole entry): T1 sequence (whole entry)

Compound | IC50 [nM]
NS(=O)(=O)c1ccc(-c2oc3ccccc3c(=O)c2-c2ccc3c(c2)OCO3)cc1 | 925
CS(=O)(=O)c1ccc(-c2oc3ccccc3c(=S)c2-c2ccc(Cl)c(Cl)c2)cc1 | 520
CS(=O)(=O)c1ccc(-c2oc3ccccc3c(=O)c2-c2ccccc2F)cc1 | 76.1
Cc1ccccc1-c1c(-c2ccc(S(C)(=O)=O)cc2)oc2ccccc2c1=O | 948
CS(=O)(=O)c1ccc(-c2oc3ccc(F)cc3c(=O)c2-c2cccnc2)cc1 | 1260
COc1ccc(-c2c(-c3ccc(S(C)(=O)=O)cc3)oc3ccccc3c2=O)cc1 | 517
CS(=O)(=O)c1ccc(-c2oc3ccccc3c(=O)c2-c2ccc(F)cc2)cc1 | 203
CS(=O)(=O)c1ccc(-c2oc3ccccc3c(=O)c2-c2ccc(Cl)c(Cl)c2)cc1 | 269
COc1ccc(-c2c(-c3ccc(S(N)(=O)=O)cc3)oc3ccccc3c2=O)cc1 | 393
CS(=O)(=O)c1ccc(-c2oc3ccccc3c(=O)c2-c2cccc(F)c2)cc1 | 532
NS(=O)(=O)c1ccc(-c2oc3ccccc3c(=O)c2-c2ccc(F)cc2)cc1 | 126
CS(=O)(=O)c1ccc(-c2oc3ccccc3c(=S)c2-c2ccccc2)cc1 | 102
CS(=O)(=O)c1ccc(-c2oc3ccccc3c(=O)c2-c2ccccc2)cc1 | 930
COc1ccc(-c2c(-c3ccc(S(C)(=O)=O)cc3)oc3ccccc3c2=S)cc1 | 142
CS(=O)(=O)c1ccc(-c2oc3ccccc3c(=O)c2-c2cc3ccccc3s2)cc1 | 324
CS(=O)(=O)c1ccc(-c2oc3ccccc3c(=S)c2-c2ccccc2F)cc1 | 195
CSc1ccc(-c2c(-c3ccc(S(N)(=O)=O)cc3)oc3ccccc3c2=O)cc1 | 283
NS(=O)(=O)c1ccc(-c2oc3ccccc3c(=O)c2-c2ccccc2F)cc1 | 177
CS(=O)(=O)c1ccc(-c2oc3ccccc3c(=O)c2-c2ccc(Cl)cc2Cl)cc1 | 359
CS(=O)(=O)c1ccc(-c2oc3ccccc3c(=O)c2-c2cccc3ccccc23)cc1 | 3800
CS(=O)(=O)c1ccc(-c2oc3ccccc3c(=S)c2-c2ccc(F)cc2)cc1 | 73.1
COc1ccc(-c2c(-c3ccc(S(C)(=O)=O)cc3)oc3ccccc3c2=O)cn1 | 2310
CS(=O)(=O)c1ccc(-c2oc3ccccc3c(=O)c2-c2cccc(Cl)c2)cc1 | 365
NS(=O)(=O)c1ccc(-c2oc3ccccc3c(=O)c2-c2ccccc2)cc1 | 106

test system: Rattus norvegicus; assay: Anti-inflammatory activity in Dawley rats by carrageenan-induced rat paw edema at a dose of 3 mg/kg by oral administration; format: functional; settings: not given

Compound | inhibition in vivo at 3 mg/kg [%]
CS(=O)(=O)c1ccc(-c2oc3ccc(F)cc3c(=O)c2-c2cccnc2)cc1 | 20

test system: Rattus norvegicus; assay: Anti-inflammatory activity in Dawley rats by carrageenan-induced rat paw edema at a dose of 10 mg/kg by oral administration; format: functional; settings: not given

Compound | inhibition in vivo at 10 mg/kg [%]
CS(=O)(=O)c1ccc(-c2oc3ccc(F)cc3c(=O)c2-c2cccnc2)cc1 | 26

test system: Rattus norvegicus; assay: Anti-inflammatory activity in Dawley rats by carrageenan-induced rat paw edema at a dose of 30 mg/kg; format: functional; settings: not given

Compound | inhibition in vivo at 30 mg/kg [%]
CS(=O)(=O)c1ccc(-c2oc3ccccc3c(=O)c2-c2cccnc2)cc1 | 41

molecular target: T2, Prostaglandin G/H synthase 1 (Mus musculus); assay: In vitro percentage inhibition against prostaglandin G/H synthase 1 using freshly harvested mouse peritoneal macrophages at 10 ug/mL concentration; settings: not given

Compound | inhibition [%]
CS(=O)(=O)c1ccc(-c2oc3ccccc3c(=S)c2-c2ccc(Cl)c(Cl)c2)cc1 | < 5
CS(=O)(=O)c1ccc(-c2oc3ccccc3c(=O)c2-c2ccccc2F)cc1 | < 5
Cc1ccccc1-c1c(-c2ccc(S(C)(=O)=O)cc2)oc2ccccc2c1=O | < 5
CS(=O)(=O)c1ccc(-c2oc3ccc(F)cc3c(=O)c2-c2cccnc2)cc1 | 12
CS(=O)(=O)c1ccc(-c2oc3ccccc3c(=O)c2-c2ccccn2)cc1 | 17
COc1ccc(-c2c(-c3ccc(S(C)(=O)=O)cc3)oc3ccccc3c2=O)cc1 | < 5
CS(=O)(=O)c1ccc(-c2oc3ccccc3c(=O)c2-c2ccc(F)cc2)cc1 | < 5
CS(=O)(=O)c1ccc(-c2oc3ccccc3c(=O)c2-c2ccc(Cl)c(Cl)c2)cc1 | < 5
COc1ccc(-c2c(-c3ccc(S(N)(=O)=O)cc3)oc3ccccc3c2=O)cc1 | 84
CS(=O)(=O)c1ccc(-c2oc3ccccc3c(=O)c2-c2cccc(F)c2)cc1 | < 5
NS(=O)(=O)c1ccc(-c2oc3ccccc3c(=O)c2-c2ccc(F)cc2)cc1 | 67
CS(=O)(=O)c1ccc(-c2oc3ccccc3c(=O)c2-c2ccncc2)cc1 | < 5
CS(=O)(=O)c1ccc(-c2oc3ccccc3c(=S)c2-c2ccccc2)cc1 | < 5
CS(=O)(=O)c1ccc(-c2oc3ccccc3c(=O)c2-c2ccccc2)cc1 | < 5
COc1ccc(-c2c(-c3ccc(S(C)(=O)=O)cc3)oc3ccccc3c2=S)cc1 | < 5
CS(=O)(=O)c1ccc(-c2oc3ccccc3c(=O)c2-c2cc3ccccc3s2)cc1 | < 5
CS(=O)(=O)c1ccc(-c2oc3ccccc3c(=S)c2-c2ccccc2F)cc1 | < 5
CSc1ccc(-c2c(-c3ccc(S(N)(=O)=O)cc3)oc3ccccc3c2=O)cc1 | 90
Cn1cc(-c2c(-c3ccc(S(C)(=O)=O)cc3)oc3ccccc3c2=O)cn1 | < 5
NS(=O)(=O)c1ccc(-c2oc3ccccc3c(=O)c2-c2ccccc2F)cc1 | 60
CS(=O)(=O)c1ccc(-c2oc3ccccc3c(=O)c2-c2ccc(Cl)cc2Cl)cc1 | < 5
CS(=O)(=O)c1ccc(-c2oc3ccccc3c(=O)c2-c2ccc(Cl)cc2)cc1 | < 5
CS(=O)(=O)c1ccc(-c2oc3ccccc3c(=O)c2-c2cccc3ccccc23)cc1 | < 5
CS(=O)(=O)c1ccc(-c2oc3ccccc3c(=S)c2-c2ccc(F)cc2)cc1 | < 5
COc1ccc(-c2c(-c3ccc(S(C)(=O)=O)cc3)oc3ccccc3c2=O)cn1 | 18
CS(=O)(=O)c1ccc(-c2oc3ccccc3c(=O)c2-c2cccc(Cl)c2)cc1 | < 5
NS(=O)(=O)c1ccc(-c2oc3ccccc3c(=O)c2-c2ccccc2)cc1 | 61
CS(=O)(=O)c1ccc(-c2oc3ccccc3c(=O)c2-c2cc(Cl)cc(Cl)c2)cc1 | < 5
CS(=O)(=O)c1ccc(-c2oc3ccccc3c(=O)c2-c2cccnc2)cc1 | 13

Source: ChEMBL document CHEMBL1136547, “2,3-Diarylbenzopyran derivatives as a novel class of selective cyclooxygenase-2 inhibitors” (Bioorg Med Chem Lett, 2003)
